In patent US9834558B2, “Substituted bridged urea analogs as sirtuin modulators” (GLAXOSMITHKLINE LLC, priority 2013, dated 2017):
Like-named read-outs stand apart in the source and are kept apart here.

Biological target: T1, SIRT1 (Homo sapiens, UniProt Q96EB6)
T1 sequence (Q96EB6 1-747): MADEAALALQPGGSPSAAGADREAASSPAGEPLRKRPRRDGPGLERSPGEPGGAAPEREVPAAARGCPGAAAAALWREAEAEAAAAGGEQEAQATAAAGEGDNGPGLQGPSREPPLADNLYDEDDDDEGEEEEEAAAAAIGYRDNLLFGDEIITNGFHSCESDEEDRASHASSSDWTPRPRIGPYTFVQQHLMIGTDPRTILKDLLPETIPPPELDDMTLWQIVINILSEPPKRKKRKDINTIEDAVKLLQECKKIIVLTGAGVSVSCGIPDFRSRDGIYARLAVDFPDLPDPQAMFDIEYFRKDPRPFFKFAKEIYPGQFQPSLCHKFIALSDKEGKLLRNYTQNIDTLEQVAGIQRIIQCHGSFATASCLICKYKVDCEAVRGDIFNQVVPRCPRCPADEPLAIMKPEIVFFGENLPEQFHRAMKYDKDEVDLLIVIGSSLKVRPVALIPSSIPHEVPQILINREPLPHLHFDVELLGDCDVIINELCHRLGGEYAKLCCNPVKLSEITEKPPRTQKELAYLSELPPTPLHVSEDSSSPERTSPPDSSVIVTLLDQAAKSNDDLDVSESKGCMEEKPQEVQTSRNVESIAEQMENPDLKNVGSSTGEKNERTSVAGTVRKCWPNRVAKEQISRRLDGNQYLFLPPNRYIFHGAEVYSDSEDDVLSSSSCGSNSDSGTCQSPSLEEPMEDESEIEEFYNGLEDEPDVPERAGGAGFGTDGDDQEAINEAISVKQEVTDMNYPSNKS
Test: Trp mass spectrometry assay of SIRT1 activation
Assay type: biochemical
Conditions: for TRP Activity (EC1.5): EC1.5 = concentration that results in 150% activation of SIRT1
In short: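 N-terminal His-tagged human SIRT1 (10 nM, E. coli BL21(DE3)) with 0.5 μM Ac-RHKK(Ac)W-NH2 peptide and 120 μM βNAD+, 25 min at 25 °C in HEPES pH 7.5, formic acid stop. OAADPR or deacetylated peptide quantified by mass spectrometry; EC1.5 (50% activity increase over control) and Percent Maximum Activation reported.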

[1] = Trp peptide assay, maximum activity relative to control (100%), read-out: TRP MAX RESP (percent maximum fold activation)
[2] = concentration giving 150% activation of SIRT1, Trp peptide substrate
[3] = Trp mass spectrometry assay, EC1.5 = concentration of test compound that results in 150% activation of SIRT1
[4] = Trp mass spectrometry assay, concentration of test compound giving 150% activation of SIRT1

TRP Activity (EC1.5) (Trp peptide assay)	Emax [1] [%]	SMILES	other results
A (A (EC1.5<1 μM))	> 150	COc1cc(-c2ccc3c(n2)N(C(=O)Nc2cnccn2)[C@H]2CCN3C2)cc(C)n1 [(9S)-5-(2-methoxy-6-methylpyridin-4-yl)-N-(pyrazin-2-yl)-1,6,8-triazatricyclo[7.2.1.0 {2,7}]dodeca-2(7),3,5-triene-8-carboxamide]	
B (B (EC1.5 1-25 μM))	> 150	Cc1cc(-c2ccc3c(n2)N(C(=O)Nc2nccc4[nH]cnc24)[C@H]2CCN3C2)ccn1 [(9S)-N-{1H-imidazo[4,5-c]pyridin-4-yl}-5-(2-methylpyridin-4-yl)-1,6,8-triazatricyclo[7.2.1.0 {2,7}]dodeca-2,4,6-triene-8-carboxamide]	
B (B (EC1.5 1-25 μM))	> 150	Cc1ccc(-c2ccc3c(n2)N(C(=O)Nc2cccnc2)[C@H]2CCN3C2)c(C)n1 [(9S)-5-(2,6-dimethylpyridin-3-yl)-N-(pyridin-3-yl)-1,6,8-triazatricyclo[7.2.1.0 {2,7}]dodeca-2(7),3,5-triene-8-carboxamide]	
A (A (EC1.5<1 μM))	> 150	Cc1cc(-c2ccc3c(n2)N(C(=O)Nc2ccc4c(c2)OCO4)[C@H]2CCN3C2)ccn1 [(9S)-N-(2H-1,3-benzodioxo1-5-yl)-5-(2-methylpyridin-4-yl)-1,6,8-triazatricyclo[7.2.1.0 {2,7}]dodeca-2(7),3,5-triene-8-carboxamide]	
B (B (EC1.5 1-25 μM))	> 150	Cc1cc(-c2ccc3c(n2)N(C(=O)Nc2cnccn2)[C@H]2CCN3C2)c(C)cn1 [(9S)-5-(2,5-dimethylpyridin-4-yl)-N-(pyrazin-2-yl)-1,6,8-triazatricyclo[7.2.1.0 {2,7}]dodeca-2,4,6-triene-8-carboxamide]	
B (B (EC1.5 1-25 μM))	> 150	Cc1ncc(-c2ccc3c(n2)N(C(=O)Nc2cccnc2)[C@H]2CCN3C2)cc1F [(9S)-5-(5-fluoro-6-methylpyridin-3-yl)-N-(pyridin-3-yl)-1,6,8-triazatricyclo[7.2.1.0 {2,7}]dodeca-2(7),3,5-triene-8-carboxamide]	
B (B (EC1.5 1-25 μM))	> 150	Cn1cc(-c2ccc3c(n2)N(C(=O)Nc2cnccn2)[C@H]2CCN3C2)cn1 [(9S)-5-(1-methyl-1H-pyrazol-4-yl)-N-(pyrazin-2-yl)-1,6,8-triazatricyclo[7.2.1.0 {2,7}]dodeca-2(7),3,5-triene-8-carboxamide]	
C (C (EC1.5>25 μM))	< 150	Cc1cc(C)c(-c2ccc3c(n2)N(C(=O)Nc2cnccn2)[C@H]2CCN3C2)cn1 [(9S)-5-(4,6-dimethylpyridin-3-yl)-9-N-(pyrazin-2-yl)-1,6,8-triazatricyclo[7.2.1.0 {2,7}]dodeca-2(7),3,5-triene-8-carboxamide]	
B (B (EC1.5 1-25 μM))	> 150	Cc1ccc(-c2ccc3c(n2)N(C(=O)Nc2cncc(C)n2)[C@H]2CCN3C2)cn1 [(9S)-N-(6-methylpyrazin-2-yl)-5-(6-methylpyridin-3-yl)-1,6,8-triazatricyclo[7.2.1.0 {2,7}]dodeca-2,4,6-triene-8-carboxamide]	
B (B (EC1.5 1-25 μM))	> 150	Cc1ccc(-c2cc(C)c3c(n2)N(C(=O)Nc2cccnc2)[C@H]2CCN3C2)cn1 [(9S)-3-methyl-5-(6-methylpyridin-3-yl)-N-(pyridin-3-yl)-1,6,8-triazatricyclo[7.2.1.0^{2,7}]dodeca-2,4,6-triene-8-carboxamide]	

The remaining lines, values behind:

SMILES	TRP Activity (EC1.5) (Trp peptide assay)	Emax [1] [%]	other results
Cc1cc(-c2ccc3c(n2)N(C(=O)Nc2cncc(C(C)C)n2)[C@H]2CCN3C2)ccn1 [(9S)-5-(2-methylpyridin-4-yl)-N-[6-(propan-2-yl)pyrazin-2-yl]-1,6,8-triazatricyclo[7.2.1.0^2,7]dodeca-2(7),3,5-triene-8-carboxamide]	A (A (EC1.5<1 μM))	> 150	
O=C(Nc1cccc(-c2cnco2)c1)N1c2nc(-c3cncc(F)c3)ccc2N2CC[C@H]1C2 [Example 722]			Tryp AVG EC1.5 (μM) [2]: A (A (EC1.5<1 μM))
CC(C)(C)OC(=O)NCc1cn(-c2cccc(NC(=O)N3c4nc(-c5cccc(C(F)(F)F)c5)ccc4N4CC[C@H]3C4)c2)nn1 [Example 605]			Tryp AVG EC1.5 (μM) [3]: A (A (EC1.5<1 μM))
O=C(Nc1cnccn1)N1c2nc(-c3cccc(Cl)c3)ccc2N2C[C@@H](O)[C@H]1C2 [Example 678]			Tryp AVG EC1.5 (μM) [2]: C (C (EC1.5>25 μM))
O=C(NCCCc1cccnc1)N1c2nc(-c3cccc(C(F)(F)F)c3)ccc2N2CC[C@H]1C2 [Example 674]			Tryp AVG EC1.5 (μM) [2]: B (B (EC1.5 1-25 μM))
O=C(Nc1nnc(-c2ccccc2)o1)N1c2nc(-c3cccc(C(F)(F)F)c3)ccc2N2CC[C@H]1C2 [Example 719]			Tryp AVG EC1.5 (μM) [2]: A (A (EC1.5<1 μM))
Cc1nc(NC(=O)N2c3nc(-c4cccnc4)ccc3N3CCC[C@H]2C3)sc1C [Example 466]			Tryp AVG EC1.5 (μM) [3]: B (B (EC1.5 1-25 μM))
O=C(Nc1cccnc1)N1c2nc(-c3cccc(Cl)c3)ccc2N2CCC[C@H]1C2 [Example 407]			Tryp AVG EC1.5 (μM) [4]: A (A (EC1.5<1 μM))
O=C(Nc1cccnc1)N1c2nc(-c3cc[nH]n3)ccc2N2CC[C@H]1C2 [Example 493]			Tryp AVG EC1.5 (μM) [3]: B (B (EC1.5 1-25 μM))
O=C(Nc1ccnc(OC[C@H](O)CO)n1)N1c2nc(-c3cccc(C(F)(F)F)c3)ccc2N2CC[C@H]1C2 [(9S)-N-{2-[(2R)-2,3-dihydroxypropoxy]pyrimidin-4-yl}-5-[3-(trifluoromethyl)phenyl]-1,6,8-triazatricyclo[7.2.1.0 {2,7}]dodeca-2(7),3,5-triene-8-carboxamide]	A (A (EC1.5<1 μM))	> 150	
O=C(Nc1ccc(-n2cncn2)cc1)N1c2nc(-c3cncc(C(F)(F)F)c3)ccc2N2CC[C@H]1C2 [Example 580]			Tryp AVG EC1.5 (μM) [3]: A (A (EC1.5<1 μM)); Emax (Trp mass spectrometry assay, percent maximum fold activation of SIRT1, read-out: Tryp % Fold Act): > 150%
Cc1cncc(NC(=O)N2c3nc(-c4cccc(Cl)c4)ccc3N3C[C@@H](O)[C@H]2C3)c1 [Example 677]			Tryp AVG EC1.5 (μM) [2]: B (B (EC1.5 1-25 μM))
O=C(Nc1ccc(F)cn1)N1c2nc(N3CCC[C@H](C(F)(F)F)C3)ccc2N2CCC[C@H]1C2 [drawing 1177, (9S)-N-(5-fluoropyridin-2-yl)-5-[(3S)-3-(trifluoromethyl)piperidin-1-yl]-1,6,8-triazatricyclo[7.3.1.0 {2,7}]trideca-2(7),3,5-triene-8-carboxamide]	A (A (EC1.5<1 μM))	> 150	
Cc1ccncc1-c1ccc2c(n1)N(C(=O)Nc1cncc(F)c1)[C@H]1CCCN2C1 [Example 510]			Tryp AVG EC1.5 (μM) [3]: B (B (EC1.5 1-25 μM))
Cc1ccc(-c2ccc3c(n2)N(C(=O)NCC(C)(C)C)[C@H]2CCN3C2)cn1 [(9S)-N-(2,2-dimethylpropyl)-5-(6-methylpyridin-3-yl)-1,6,8-triazatricyclo[7.2.1.0 {2,7}]dodeca-2(7),3,5-triene-8-carboxamide]	C (C (EC1.5>25 μM))	< 150	
Cc1ccncc1-c1ccc2c(n1)N(C(=O)Nc1cccnc1)[C@H]1CCCN2C1 [Example 516]			Tryp AVG EC1.5 (μM) [3]: B (B (EC1.5 1-25 μM))
O=C(Nc1cccc(-c2cccnc2)n1)N1c2nc(-c3cccc(C(F)(F)F)c3)ccc2N2CC[C@H]1C2 [Example 655]			Tryp AVG EC1.5 (μM) [2]: A (A (EC1.5<1 μM))
O=C(Nc1cccc(-c2cnco2)n1)N1c2nc(-c3cncc(C(F)(F)F)c3)ccc2N2C[C@@H](O)[C@H]1C2 [Example 703]			Tryp AVG EC1.5 (μM) [2]: A (A (EC1.5<1 μM))
O=C(Nc1ccc(F)cn1)N1c2nc(-c3cncc(Cl)c3)ccc2N2CCC[C@H]1C2 [Example 401]			Tryp AVG EC1.5 (μM) [4]: A (A (EC1.5<1 μM))
O=C(Nc1cccnc1)N1c2nc(-c3cncc(C(F)(F)F)c3)ccc2N2CC[C@H]1C2 [Example 392]			Tryp AVG EC1.5 (μM) [4]: A (A (EC1.5<1 μM))
N#Cc1cc(-c2ccc3c(n2)N(C(=O)Nc2ccccn2)[C@H]2CCN3C2)ccc1F [Example 341]			Tryp AVG EC1.5 (μM) [4]: A (A (EC1.5<1 μM))
O=C(Nc1cccc(-c2cnco2)c1)N1c2nc(-c3cncc(Cl)c3)ccc2N2CCC1CC2 [Example 575]			Tryp AVG EC1.5 (μM) [3]: A (A (EC1.5<1 μM))
NC(=O)CN1CCC(c2cccc(NC(=O)N3c4nc(-c5cccc(C(F)(F)F)c5)ccc4N4CC[C@H]3C4)c2)C1 (some centres unmarked) [Example 594]			Tryp AVG EC1.5 (μM) [3]: A (A (EC1.5<1 μM))
O=C(Nc1ccc(F)cn1)N1c2nc(-c3ccnc(N4CC[C@H](F)C4)c3)ccc2N2CC[C@H]1C2 [Example 463]			Tryp AVG EC1.5 (μM) [3]: A (A (EC1.5<1 μM))
Cc1nc(NC(=O)N2c3nc(-c4cccc(Cl)c4)ccc3N3CC[C@H]2C3)sc1C [Example 102]			Tryp AVG EC1.5 (μM) (Trp peptide substrate, concentration giving 150% activation of SIRT1): A (A (EC1.5<1 μM))
